In patent US20250222044A1, “LIMOSILACTOBACILLUS REUTERI GOLDGUT-LR99 AND APPLICATION THEREOF” (priority 2024, published 2025):

System: Limosilactobacillus reuteri GOLDGUT-LR99
Experiment: Antibiotic sensitivity, K-B method (Kirby-Bauer method)
Format: cell-based
Parameters: key to Antibiotic susceptibility test result: R represents resistance; S represents sensitivity
Details: susceptibility of the strain to the antibiotic
Protocol: Antibiotic sensitivity of Limosilactobacillus reuteri GOLDGUT-LR99 was determined using the K-B method (Kirby-Bauer method).

Row | Compound | Antibiotic susceptibility test result
1 | CCN1CCN(C(=O)N[C@@H](C(=O)N[C@@H]2C(=O)N3[C@@H]2SC(C)(C)[C@@H]3C(=O)O)c2ccccc2)C(=O)C1=O [Piperacillin] | S
2 | Gentamicin | S
3 | CC[C@H]1OC(=O)[C@H](C)[C@@H](O[C@H]2C[C@@](C)(OC)[C@@H](O)[C@H](C)O2)[C@H](C)[C@@H](O[C@@H]2O[C@H](C)C[C@H](N(C)C)[C@H]2O)[C@](C)(O)C[C@@H](C)C(=O)[C@H](C)[C@@H](O)[C@]1(C)O [Erythromycin] | R
4 | CCC[C@@H]1C[C@@H](C(=O)N[C@@H]([C@H]2O[C@H](SC)[C@H](O)[C@@H](O)[C@H]2O)[C@H](C)Cl)N(C)C1 [Clindamycin] | R
5 | CC1COc2c(N3CCN(C)CC3)c(F)cc3c(=O)c(C(=O)O)cn1c23 (stereo not drawn) [Ofloxacin] | R
6 | O=C1OCCN1/N=C/c1ccc([N+](=O)[O-])o1 [Furazolidone] | S
7 | CCn1cc(C(=O)O)c(=O)c2cc(F)c(N3CCNCC3)cc21 [Norfloxacin] | R
8 | Penicillin | S
9 | CC1(C)S[C@@H]2[C@H](NC(=O)C(C(=O)O)c3ccccc3)C(=O)N2[C@H]1C(=O)O (stereo partly drawn) [Carbenicillin] | S
